Experimental data: ChEMBL document CHEMBL1145169, “Discovery of substituted maleimides as liver X receptor agonists and determination of a ligand-bound crystal structure” (J Med Chem, 2005)
“And” between values parts separate entries of the source, which are not always exact repeats. Identical values can stand only once.

Tests used:
[1] = biological target: Glycogen synthase kinase-3 beta (Homo sapiens, UniProt P49841); assay: Inhibition of human GSK3-beta
[2] = biological target: T1, Oxysterols receptor LXR-alpha (Homo sapiens) (UniProt Q13133)
T1 sequence (whole entry): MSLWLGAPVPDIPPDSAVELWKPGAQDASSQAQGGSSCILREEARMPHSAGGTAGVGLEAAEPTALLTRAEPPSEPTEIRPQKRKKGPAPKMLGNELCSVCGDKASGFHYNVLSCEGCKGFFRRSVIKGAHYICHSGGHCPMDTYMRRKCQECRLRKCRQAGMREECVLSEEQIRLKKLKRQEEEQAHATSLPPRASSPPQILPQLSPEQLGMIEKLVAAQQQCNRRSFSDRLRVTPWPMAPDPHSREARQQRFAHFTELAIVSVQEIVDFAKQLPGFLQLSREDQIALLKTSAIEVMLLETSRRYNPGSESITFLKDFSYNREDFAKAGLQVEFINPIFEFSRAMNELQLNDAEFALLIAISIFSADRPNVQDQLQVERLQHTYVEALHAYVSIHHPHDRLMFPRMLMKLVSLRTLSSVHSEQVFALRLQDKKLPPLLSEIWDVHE
Description: Relative efficacy for Steroid receptor coactivator-1 (SRC1) recruitment to human LXRalpha compared to GW-3965

[3] = Effective concentration in human ATP binding cassette transporter A1 (ABCA1) transcriptional activation assay
[4] = biological target: T2, Oxysterols receptor LXR-beta (Homo sapiens, UniProt P55055); assay: Effective concentration for Steroid receptor coactivator-1 (SRC1) recruitment to human LXRbeta (Liver X receptor)
T2 sequence (P55055 whole entry): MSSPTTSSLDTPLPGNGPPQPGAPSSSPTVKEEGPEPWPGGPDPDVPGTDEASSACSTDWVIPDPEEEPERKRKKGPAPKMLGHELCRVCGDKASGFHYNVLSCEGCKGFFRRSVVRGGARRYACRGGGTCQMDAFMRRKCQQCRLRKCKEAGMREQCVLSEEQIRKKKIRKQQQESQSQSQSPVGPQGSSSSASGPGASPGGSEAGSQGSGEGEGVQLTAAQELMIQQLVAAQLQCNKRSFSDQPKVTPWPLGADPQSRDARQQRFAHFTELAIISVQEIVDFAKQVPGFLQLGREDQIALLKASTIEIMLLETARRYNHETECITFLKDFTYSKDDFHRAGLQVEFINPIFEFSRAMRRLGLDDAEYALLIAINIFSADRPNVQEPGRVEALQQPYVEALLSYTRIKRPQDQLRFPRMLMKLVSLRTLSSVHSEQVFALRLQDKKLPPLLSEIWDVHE

[5] = biological target: T3, Oxysterols receptor LXR-alpha (Homo sapiens, UniProt Q13133); assay: Effective concentration for Steroid receptor coactivator-1 (SRC1) recruitment to human LXRalpha (Liver X receptor)
T3 sequence (Q13133 whole entry): T1 sequence (whole entry)

[6] = biological target: T4, Oxysterols receptor LXR-beta (Homo sapiens) (UniProt P55055); assay: Relative efficacy in Steroid receptor coactivator-1 (SRC1) recruitment to human LXRbeta compared to GW-3965
T4 sequence (whole entry): T2 sequence (P55055 whole entry)

Glycogen synthase kinase-3 beta, sequence (P49841 whole entry): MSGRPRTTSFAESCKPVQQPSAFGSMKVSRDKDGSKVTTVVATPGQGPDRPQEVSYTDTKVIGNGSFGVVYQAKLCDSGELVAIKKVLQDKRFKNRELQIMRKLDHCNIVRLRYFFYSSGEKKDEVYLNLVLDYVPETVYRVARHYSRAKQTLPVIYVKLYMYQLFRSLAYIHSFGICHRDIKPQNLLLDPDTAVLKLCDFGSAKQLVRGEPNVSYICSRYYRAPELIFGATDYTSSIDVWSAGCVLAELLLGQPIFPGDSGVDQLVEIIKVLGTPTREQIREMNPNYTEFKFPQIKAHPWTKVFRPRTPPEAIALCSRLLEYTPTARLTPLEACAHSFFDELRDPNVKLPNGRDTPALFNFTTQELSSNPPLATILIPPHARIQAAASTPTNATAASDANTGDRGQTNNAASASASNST

Structure (SMILES) | IC50 [1] | RE [2] | EC50 [3] | RE (Homo sapiens) | EC50 [4] | EC50 [5] | RE [6]
COc1ccc(NC2=C(c3ccccc3)C(=O)N(Cc3ccccc3)C2=O)cc1 | > 5 µM | 0.9 | 0.08 µM | 0.9 | 0.04 µM | 0.05 µM | –
CCN1C(=O)C(Nc2ccc(OC)cc2)=C(c2ccccc2)C1=O | > 5 µM | 1.1 and 0.9 | 10.2 µM | 0.4 | 0.2 µM | 0.3 µM | –
COc1ccc(NC2=C(c3ccccc3)C(=O)N(c3ccccc3)C2=O)cc1 | > 5 µM | 0.7 and 0.6 | 1.12 µM | 0.7 | 0.26 µM | 0.275 µM | –
COc1ccc(NC2=C(c3ccccc3)C(=O)N(C)C2=O)cc1 | > 2 µM | 0.9 | 0.84 µM | 1.4 | 0.3 µM | 0.575 µM | –
O=C1C(Nc2ccc(Cl)cc2)=C(c2ccccc2)C(=O)N1Cc1ccccc1 | > 5 µM | 0.3 and 0.4 | 1.42 µM | 0.4 | 0.11 µM | 0.13 µM | –
O=C1C(Nc2ccccc2)=C(c2ccccc2)C(=O)N1Cc1ccccc1 | > 5 µM | 0.3 and 0.5 | 1.32 µM | 0.6 | 0.07 µM | 0.1 µM | –
CN1C(=O)C(Nc2ccccc2)=C(c2ccccc2)C1=O | > 5 µM | 0.5 and 0.6 | 4.65 µM | 0.3 | 0.85 µM | 1.59 µM | –
O=S(=O)(c1ccccc1)N(CC(F)(F)F)c1ccc(C(O)(C(F)(F)F)C(F)(F)F)cc1 [T091317] | – | 1.1 and 0.8 | 0.07 µM | 1 | – | – | –
O=C(O)Cc1cccc(OCCCN(Cc2cccc(C(F)(F)F)c2Cl)CC(c2ccccc2)c2ccccc2)c1 | – | 1 | 0.17 µM | 1 | – | 0.08 µM | 1
CCN1C(=O)C(Nc2ccccc2)=C(c2ccccc2)C1=O | > 5 µM | 0.7 | 1.79 µM | 0.5 | 0.56 µM | 0.89 µM | –
CCN1C(=O)C(Nc2ccc(Cl)cc2)=C(c2ccccc2)C1=O | > 5 µM | 0.5 and 0.6 | 4.55 µM | 0.4 | 0.575 µM | 0.725 µM | –
